Reference: US4051315A, “6"-Deoxykanamycin B and 6"-deoxytobramycin” (priority 1975, dated 1977)
Where two headings read alike, the source gives them in different places.

Tests used:
Format in all cases: cell-based
[1] = system: E. coli JR35/C600 NPT-1; assay: two-fold agar dilution MIC, Ec-10
[2] = system: E. coli JR66/W677 NPT-2, GAS; assay: two-fold agar dilution MIC, Ec-53
[3] = system: E. coli P01495 CP.TC-R; assay: two-fold agar dilution MIC, Ec-2; conditions: Escherichia coli, P01495CP.TCR
[4] = system: K. pneumoniae D11; assay: two-fold agar dilution MIC, Kp-1; conditions: Klebsiella pneumoniae
[5] = system: P. aeruginosa A20653 NPT-1,2; assay: two-fold agar dilution MIC, Pa-12; conditions: Pseudomonas aeruginosa
[6] = system: E. coli NIHJ; assay: two-fold agar dilution MIC, Ec-1
[7] = system: E. cloacae A20364 NPT-1; assay: two-fold agar dilution MIC, E1-2; conditions: Enterobacter cloacae
[8] = system: S. marcescens A21247 NPT-1, GAS; assay: two-fold agar dilution MIC, Sm-16; conditions: Serratia marcescens
[9] = system: E. cloacae A21006 NPT-2; assay: two-fold agar dilution MIC, E1-12
[10] = system: E. coli NR79/W677 KAT; assay: two-fold agar dilution MIC, Ec-9; conditions: Escherichia coli, NR79/W677KAT
[11] = system: P. aeruginosa #130 GAT-1, NPT; assay: two-fold agar dilution MIC, Pa-16
[12] = system: P. mirabilis A9554 CL-R; assay: two-fold agar dilution MIC, Pm-1
[13] = system: S. marcescens A20019; assay: two-fold agar dilution MIC, Sm-1
[14] = system: S. aureus D137 PC, TC, EM-R; assay: two-fold agar dilution MIC, Sa-9
[15] = system: a variety of gram-positive and gram-negative bacteria; assay: antibacterial activity by two-fold agar dilution method, overall statement
[16] = system: P. aeruginosa GN-4925; assay: two-fold agar dilution MIC, Pa-45; conditions: Pseudomonas aeruginosa
[17] = system: E. coli A20732 GAS; assay: two-fold agar dilution MIC, Ec-72; conditions: Escherichia coli, A20732GAS
[18] = system: S. aureus A20239 NPT-1,2; assay: two-fold agar dilution MIC, Sa-10
[19] = system: B. subtilis PCT-219; assay: two-fold agar dilution MIC, Bs-1; conditions: Bacillus subtilis
[20] = system: P. vulgaris A9436; assay: two-fold agar dilution MIC, Pv-1
[21] = system: S. aureus Smith; assay: two-fold agar dilution MIC, Sa-2; conditions: Staphylococcus aureus
[22] = system: P. aeruginosa A20896 GAT-3; assay: two-fold agar dilution MIC, Pa-24
[23] = system: P. stuartii A20894 GAT-2; assay: two-fold agar dilution MIC, Ps-2
[24] = system: E. coli R5 KAT; assay: two-fold agar dilution MIC, Ec-55
[25] = system: K. pneumoniae 22-3038 NPT-2, GAS; assay: two-fold agar dilution MIC, Kp-8
[26] = system: E. coli JR88 CAT-1; assay: two-fold agar dilution MIC, Ec-62
[27] = system: P. aeruginosa A9930; assay: two-fold agar dilution MIC, Pa-3; conditions: Pseudomonas aeruginosa
[28] = system: E. coli ML1630 NPT-1; assay: two-fold agar dilution MIC, Ec-5; conditions: Escherichia coli
[29] = system: P. aeruginosa GN-315 KAT; assay: two-fold agar dilution MIC, Pa-27
[30] = system: S. aureus D133 SH, Sth-R; assay: two-fold agar dilution MIC, Sa-4
[31] = system: Pseudomonas sp. A20621 KAT, NPT-1,2; assay: two-fold agar dilution MIC, Px-10
[32] = system: P. aeruginosa A20601 GAT-1; assay: two-fold agar dilution MIC, Pa-21; conditions: Pseudomonas aeruginosa
[33] = system: E. coli A20107 NPT-2; assay: two-fold agar dilution MIC, Ec-49; conditions: Escherichia coli
[34] = Escherichia coli, JR35/C600NPT1
[35] = Escherichia coli, Run 1, read-out: MIC
[36] = Enterobacter cloacae, A21006NPT2
[37] = Pseudomonas aeruginosa, Run 1, read-out: MIC
[38] = Proteus mirabilis, A9554CLR, Run 1, read-out: MIC
[39] = Serratia marcescens, A20019, Run 1, read-out: MIC
[40] = Staphylococcus aureus, Run 1, read-out: MIC
[41] = Proteus vulgaris, A9436, Run 1, read-out: MIC
[42] = Pseudomonas aeruginosa, A20896GAT3, Run 1, read-out: MIC
[43] = Klebsiella pneumoniae, Run 1, read-out: MIC
[44] = Pseudomonas, Run 1, read-out: MIC

CC1OC(OC2C(N)CC(N)C(OC3OC(CN)C(O)CC3N)C2O)C(O)C(N)C1O (centres unmarked) [compound 6, 6"-Deoxytobramycin]
0.8 mg/L: MIC [1, 34] | MIC ([1]; Run 2, Ec-10) | MIC ([3]; Run 1) | MIC ([3]; Run 2) | MIC [6, 35] | MIC ([6]; Run 2) | MIC ([10]; Run 2) | MIC [12, 38] | MIC ([12]; Run 2) | MIC ([18]; Run 2, Sa-10) | MIC ([18]; Staphylococcus aureus) | MIC ([28]; ML1630NPT1, Run 2) | MIC ([33]; A20107NPT2, Run 2)
excellent antibacterial activity: antibacterial activity [15]
0.4 mg/L: MIC ([4]; D11, Run 2) | MIC ([24]; Escherichia coli, R5KAT) | MIC ([24]; Run 2, Ec-55) | MIC ([27]; A9930, Run 1) | MIC ([27]; A9930, Run 2)
3.1 mg/L: MIC ([5]; Run 2) | MIC ([14]; Run 2) | MIC [14, 40] | MIC ([26]; Escherichia coli, JR88CAT1) | MIC ([26]; Run 2, Ec-62) | MIC ([32]; A20601GAT1, Run 1) | MIC ([32]; A20601GAT1, Run 2)
0.1 mg/L: MIC ([21]; Run 2)
6.3 mg/L: MIC ([5]; Run 1) | MIC [11, 37] | MIC ([11]; Run 2) | MIC ([13]; Run 2) | MIC [13, 39]
100 mg/L: MIC ([8]; Run 1) | MIC ([16]; GN4925, Run 1) | MIC ([16]; GN4925, Run 2)
0.2 mg/L: MIC ([4]; D11, Run 1) | MIC [20, 41] | MIC ([20]; Run 2) | MIC ([21]; Run 1)
> 100 mg/L: MIC [22, 42] | MIC ([22]; Run 2) | MIC ([29]; Pseudomonas aeruginosa, GN315, Run 2, read-out: MIC) | MIC ([29]; Run 1)
< 0.05 mg/L: MIC ([19]; PCT219, Run 1) | MIC ([19]; PCT219, Run 2)
25 mg/L: MIC ([2]; Escherichia coli) | MIC ([2]; Run 2, Ec-53) | MIC ([17]; Run 2) | MIC ([23]; Providencia stuartii, A20894GAT2, Run 1, Ps-2, read-out: MIC) | MIC ([23]; Run 2, Ps-2) | MIC [25, 43] | MIC ([25]; Run 2)
1.6 mg/L: MIC ([7]; A20364NPT1, Run 1) | MIC ([7]; A20364NPT1, Run 2) | MIC [9, 36] | MIC ([9]; Run 2, E1-12) | MIC ([10]; Run 1) | MIC ([28]; ML1630NPT1, Run 1) | MIC ([30]; Run 2) | MIC [30, 40] | MIC ([33]; A20107NPT2, Run 1)
50 mg/L: MIC ([8]; Run 2) | MIC ([17]; Run 1) | MIC [31, 44] | MIC ([31]; Run 2)

NCC1OC(OC2C(N)CC(N)C(OC3OC(CO)C(O)C(N)C3O)C2O)C(N)CC1O (centres unmarked) [tobramycin, 3'-deoxykanamycin B]
0.4 mg/L: MIC ([4]; D11, Run 1) | MIC [20, 41] | MIC ([20]; Run 2) | MIC ([21]; Run 1) | MIC ([27]; A9930, Run 1)
100 mg/L: MIC ([16]; GN4925, Run 1)
0.2 mg/L: MIC ([19]; PCT219, Run 1) | MIC ([21]; Run 2)
> 100 mg/L: MIC [22, 42] | MIC ([22]; Run 2) | MIC ([29]; Pseudomonas aeruginosa, GN315, Run 1, read-out: MIC) | MIC ([29]; Run 2)
12.5 mg/L: MIC ([13]; Serratia marcescens, A20019, Run 2) | MIC ([23]; Providencia stuartii, A20894GAT2) | MIC ([23]; Run 2, Ps-2)
50 mg/L: MIC ([7]; A20364NPT1, Run 1) | MIC ([8]; Run 1) | MIC ([8]; Run 2) | MIC ([16]; GN4925, Run 2) | MIC ([17]; Run 1)
3.1 mg/L: MIC ([5]; Run 2) | MIC [11, 37] | MIC ([11]; Run 2) | MIC ([14]; Run 2) | MIC [14, 40] | MIC ([32]; A20601GAT1, Run 1)
1.6 mg/L: MIC [1, 34] | MIC ([1]; Run 2, Ec-10) | MIC ([3]; Run 1) | MIC ([7]; A20364NPT1, Run 2) | MIC [9, 36] | MIC ([9]; Run 2, E1-12) | MIC ([10]; Run 1) | MIC ([17]; Run 2) | MIC ([18]; Run 2, Sa-10) | MIC ([26]; Escherichia coli, JR88CAT1) | MIC ([26]; Run 2, Ec-62) | MIC ([28]; ML1630NPT1, Run 1) | MIC ([30]; Run 2) | MIC [30, 40] | MIC ([32]; A20601GAT1, Run 2) | MIC ([33]; A20107NPT2, Run 1) | MIC ([33]; A20107NPT2, Run 2)
< 0.05 mg/L: MIC ([19]; PCT219, Run 2)
0.8 mg/L: MIC ([3]; Run 2) | MIC ([4]; D11, Run 2) | MIC [6, 35] | MIC ([6]; Run 2) | MIC ([10]; Run 2) | MIC [12, 38] | MIC ([12]; Run 2) | MIC ([24]; Escherichia coli, R5KAT) | MIC ([24]; Run 2, Ec-55) | MIC ([27]; A9930, Run 2) | MIC ([28]; ML1630NPT1, Run 2)
6.3 mg/L: MIC ([5]; Run 1) | MIC [13, 39]
25 mg/L: MIC ([2]; Escherichia coli) | MIC ([2]; Run 2, Ec-53) | MIC [25, 43] | MIC ([25]; Run 2) | MIC [31, 44] | MIC ([31]; Run 2)
